Patent publication US7803930B2, “Antisense modulation of apolipoprotein B-expression” (Isis Pharmaceuticals, Inc., priority 2002, dated 2010)
In the oligonucleotide strings, read from the 5' end, every base follows the letter of its sugar. An asterisk marks phosphorothioate; unmarked linkages are phosphodiester. Other units and linkages are bracketed, terminal groups are in braces. A string of capitals states the bases alone. e = 2'-O-(2-methoxyethyl) (MOE); [5mC] = 5-methylcytosine; d = 2'-deoxy (DNA)

Legend:
[1] = Toxicity in C57BL/6 mice, two weeks (Example 48): liver enzyme levels, body, liver and spleen weight; assay type: in vivo, mouse; parameters: Weight BODY / Weight LIVER / Weight SPLEEN: unit not given here; conditions: 25 mg/kg i.p. twice a week
Description: C57BL/6 mice were divided into two groups—one group receiving oligonucleotide treatment and control animals receiving saline treatment. After overnight fasting, mice were dosed intraperitoneally twice a week with saline or 25 mg/kg of one of several oligonucleotides for two weeks. The antisense oligonucleotides used in the present study were ISIS 233172 (SEQ ID NO: 835) and ISIS 233175 (SEQ ID NO: 838), both targeted to rabbit apolipoprotein B, and ISIS 281625 (SEQ ID NO: 224), ISIS 301012 (SEQ ID NO: 247), and ISIS 301027 (SEQ ID NO: 262), targeted to human apolipoprotein B. At study termination and forty eight hours after the final injections, animals were sacrificed and evaluated for liver enzyme levels, body weight, liver weight, and spleen weight.

[2] = test system: apolipoprotein B protein; assay: Apolipoprotein B protein secreted from primary human hepatocytes, ELISA; assay type: cell-based; conditions: 150 nM, 24 hours, "+" = increased
Description: (§1) Oligonucleotides were introduced into cells through LIPOFECTIN-mediated transfection as described by other examples herein. Cells were harvested both 24 and 48 hours after treatment with oligonucleotide, and both RNA and protein were isolated. Additionally, the culture media from treated cells was collected for ELISA analysis of apolipoprotein B protein secretion.
Apolipoprotein secreted from into the cultured cell media was measured in the samples treated with 50 and 150 nM of oligonucleotide, using a target protein specific ELISA kit (ALerCHEK Inc., Portland, Me.). Each result represents 3 experiments.
(§2) An additional experiment was performed to test the effects of ISIS 271009 (SEQ ID NO: 319), ISIS 281625 (SEQ ID NO: 224) and ISIS 301027 (SEQ ID NO: 262) on human apolipoprotein B mRNA in human primary hepatocytes. Cells were cultured as described herein and treated with 5, 10, 50 or 150 nM of ISIS 271009, ISIS 281625 or ISIS 301027 for a period of 24 hours. The control oligonucleotides ISIS 13650 (SEQ ID NO: 806) and ISIS 113529 (SEQ ID NO: 859) were used at 50 or 150 nM. Human apolipoprotein B mRNA expression was evaluated by real-time PCR as described by other examples herein. Apolipoprotein B protein secreted into the cultured cell media was measured in the samples treated with 50 and 150 nM of oligonucleotide, using a target protein specific ELISA kit (ALerCHEK Inc., Portland, Me.).

[3] = test system: human apolipoprotein B mRNA; assay: Apolipoprotein B mRNA in primary human hepatocytes, real-time PCR; assay type: cell-based; conditions: 24 hours (Table 37)
Description: In accordance with the present invention, antisense oligonucleotides targeted to human apolipoprotein B were tested in dose response studies in primary human hepatocytes. Pre-plated primary human hepatocytes were purchased from Invitro Technologies (Baltimore, Md.). Cells were cultured in high-glucose DMEM (Invitrogen Corporation, Carlsbad, Calif.) supplemented with 10% fetal bovine serum (Invitrogen Corporation, Carlsbad, Calif.), 100 units/mL and 100 μg/mL streptomycin (Invitrogen Corporation, Carlsbad, Calif.).
Human primary hepatocytes were treated with ISIS 301012 (SEQ ID NO: 247) at 10, 50, 150 or 300 nM. Untreated cells and cells treated with the scrambled control oligonucleotide ISIS 113529 ([…], SEQ ID NO: 859) served as two groups of control cells. ISIS 113529 is a chimeric oligonucleotide (“gapmer”) 20 nucleotides in length, composed of a central “gap” region consisting of ten 2′-deoxynucleotides, which is flanked on both sides (5′ and 3′ directions) by five-nucleotide “wings”. The wings are composed of 2′-methoxyethyl (2′-MOE)nucleotides. The internucleoside (backbone) linkages are phosphorothioate (P═S) throughout the oligonucleotide. All cytidines are 5-methylcytidines.
as §1
Apolipoprotein B mRNA expression was determined by real-time PCR of RNA samples as described by other examples herein. Each result represents 6 experiments.
as §2

[4] = test system: rabbit apolipoprotein B mRNA; assay: Inhibition of rabbit apolipoprotein B mRNA levels in primary rabbit hepatocytes, real-time PCR; assay type: cell-based; parameters: % INHIB of rabbit apolipoprotein B mRNA levels: concentration or dose not given beside the values; conditions: for Percent Inhibition of rabbit apolipoprotein B mRNA levels: averages from two experiments
From the text: Primary rabbit hepatocytes were purchased from Invitro Technologies (Gaithersburg, Md.) and maintained in Dulbecco's modified Eagle's medium (Gibco). When purchased, the cells had been seeded into 96-well plates for use in RT-PCR analysis and were confluent.
In accordance with the present invention, a series of oligonucleotides was designed to target different regions of rabbit apolipoprotein B, using published sequences (GenBank accession number X07480.1, incorporated herein as SEQ ID NO: 808, GenBank accession number M17780.1, incorporated herein as SEQ ID NO: 809, and a sequence was derived using previously described primers (Tanaka, Journ. Biol. Chem., 1993,268, 12713-12718) representing an mRNA of the rabbit apolipoprotein B, incorporated herein as SEQ ID NO: 810). “Target site” indicates the first (5′-most) nucleotide number on the particular target sequence to which the oligonucleotide binds. All compounds in Table 21 are chimeric oligonucleotides (“gapmers”) 20 nucleotides in length, composed of a central “gap” region consisting of ten 2′-deoxynucleotides, which is flanked on both sides (5′ and 3′ directions) by five-nucleotide “wings”. The wings are composed of 2′-methoxyethyl (2′-MOE)nucleotides. The internucleoside (backbone) linkages are phosphorothioate (P═S) throughout the oligonucleotide. All cytidine residues are 5-methylcytidines. The compounds were analyzed for their effect on rabbit apolipoprotein B mRNA levels in primary rabbit hepatocytes by quantitative real-time PCR as described in other examples herein. Primary rabbit hepatocytes were treated with 150 nM of the compounds in Table 21. For rabbit apolipoprotein B the PCR primers were: • forward primer: AAGCACCCCCAATGTCACC (SEQ ID NO: 811) • reverse primer: […] (SEQ ID NO: 812) and the PCR probe was: FAM-[…]-TAMRA (SEQ ID NO: 813) where FAM (PE-Applied Biosystems, Foster City, Calif.) is the fluorescent reporter dye) and TAMRA (PE-Applied Biosystems, Foster City, Calif.) is the quencher dye. Data are averages from two experiments. If present, “N.D.” indicates “no data”.
In accordance with the present invention, a subset of the antisense oligonuclotides in Example 42 was further investigated in dose-response studies. Treatment doses were 10, 50, 150 and 300 nM. ISIS 233160 (SEQ ID NO: 824), ISIS 233166 (SEQ ID NO: 830), ISIS 233172 (SEQ ID NO: 835), ISIS 233175 (SEQ ID NO: 838), and ISIS 233183 (SEQ ID NO: 846) were analyzed for their effect on rabbit apolipoprotein B mRNA levels in primary rabbit hepatocytes by quantitative real-time PCR as described in other examples herein.

Substance	levels of liver enzymes relative to saline treatment [1]	% Inhibition of apolipoprotein B protein secretion [2]	% Inhibition of apolipoprotein B mRNA expression ([3]; 50 nM) [%]	% Inhibition of apolipoprotein B mRNA expression ([3]; 150 nM) [%]	Liver Enzymes ALT [1] [IU/L]	Liver Enzymes AST [1] [IU/L]	Weight BODY [1]	Weight LIVER [1]	Weight SPLEEN [1]	% INHIB of rabbit apolipoprotein B mRNA levels [4] [%]	Percent Inhibition of rabbit apolipoprotein B mRNA levels ([4]; 10 nM) [%]	Percent Inhibition of rabbit apolipoprotein B mRNA levels ([4]; 50 nM) [%]	Percent Inhibition of rabbit apolipoprotein B mRNA levels ([4]; 150 nM) [%]	Percent Inhibition of rabbit apolipoprotein B mRNA levels ([4]; 300 nM) [%]
ISIS 233175: SEQ ID NO: 838, targeted to rabbit apolipoprotein B (antisense eG*eA*e[5mC]*e[5mC]*eT*dT*dG*dA*dG*dT*dA*dG*dA*dT*dT*e[5mC]*e[5mC]*eT*eG*eG)	drastically increased	–	–	–	–	–	–	–	–	–	–	–	–	–
CTCTTACTGTGCTGTGGACA (antisense e[5mC]*eT*e[5mC]*eT*eT*dA*d[5mC]*dT*dG*dT*dG*d[5mC]*dT*dG*dT*eG*eG*eA*e[5mC]*eA) [ISIS 113529, reference compound]	–	+1%	0	14	–	–	–	–	–	–	–	–	–	–
233175 (antisense eG*eA*e[5mC]*e[5mC]*eT*dT*dG*dA*dG*dT*dA*dG*dA*dT*dT*e[5mC]*e[5mC]*eT*eG*eG) [compound 233175]	–	–	–	–	230.2	346.7	21.5	1.4	0.1	90	67	85	90	93
ISIS 13650: SEQ ID NO: 806, control oligonucleotide (antisense TCCCGCCTGTGACATGCATT; listed as DNA, chemistry not given here) [reference compound]	–	+18%	38	26	–	–	–	–	–	–	–	–	–	–
233172 (antisense eA*eT*eG*eG*eA*dA*dG*dA*d[5mC]*dT*dG*dG*d[5mC]*dA*dG*e[5mC]*eT*e[5mC]*eT*eA) [compound 233172]	–	–	–	–	43.3	94.3	21.3	1.3	0.1	86	60	76	81	84
